# Where a name gives a salt, the structure may show the parent alone.
# Legend:
# human lymphocytes [1] = experiment: ADCC, 51Cr release from chicken erythrocytes; format: cell-based; conditions: for Cytotoxicity index, ADCC: 5:1, 4 hours, n=10, ± S.E.
# Method: (§1) Lymphocytes were separated on Ficoll-Uromiro (Boyum 1968) gradient from the venal blood of healthy donors and patients suffering from malignant lymphoma and metastatizing solid tumours, respectively. When selecting the patients belonging to the latter group, the decreased ADCC and NK activity was taken into consideration. The phagocytes were removed by treatment with iron powder and a magnet.
# ADCC was determined according to the method of Perlmann and Perlmann (1970) with minor modifications (Lang et al, 1981). Chicken erythrocytes labelled with 10^5 51 Cr and coated with anti-chicken erythrocyte rabbit-serum were incubated with the lymphocytes for 4 hours at 37° C. The reaction having been stopped the activity of the supernatant of the centrifuged cells was determined in a gamma-counter. The rate of chrome-release was expressed as the cytotoxicity index (CI %). This value was calculated as described in one of our earlier publications (Lang et al., 1980)--(see Table I).
# Effect on ADDC. Cytotoxicity index /%/.
# Ratio of effector cells; aimed cells = 5:1. Incubation time 4 hours.
# human lymphocytes [2] = experiment: NK activity, 51Cr release from K-562 tumor cells; format: cell-based; conditions: for Cytotoxicity index, NK activity: 50:1, 4 hours, ± S.E.
# Method: as §1
# NK activity was determined by the method of Jondal and Pross (1975) by using minor modifications (Lang et al, 1981). K-562 tumor cells labelled by ^51 Cr were incubated with effector cells in a TC 199 liquid nutrient medium comprising 10% of decomplemented calf serum. The reaction having been stopped the radioactivity of the superntant of the centrifuged cells (chrome release) was counted in a gamma-counter. The killing of the tumor cells (cytotoxicity index %) was expressed as the difference of the test release and spontaneous release.
# Ratio of effector cells: aimed cells = 50:1.
# Incubation time 4 hours.
# [3] = system: human polymorphonuclear leucocytes; experiment: Direct /random/ migration of human polymorphonuclear leucocytes on agarose microdrops; format: cell-based; conditions: seven healthy controls, ± S.E.M.
# Method: Spontaneous (random) migration of leukocytes was measured on agarose microdrops according to the method of McCoy et al (1977) by carrying out some minor modifications (Kalmar and Gergely, 1982).
# […] agarose drops (0.2%) were placed on migration plates (Greiner, German Federal Republic). TC 199 liquid nutrient medium was added and the plates were air-tightly closed. After 24 hours the migration area were measured under a stereomicroscope. The migration area were expressed in mm^2.
# human lymphocytes [4] = experiment: Mitogen-induced blastos transformation (PHA, Con A); format: cell-based
# Method: Lymphocytes were cultivated in a TC 199 liquid nutrient medium completed by 10% decomplemented calf serum, antibiotics and […] HEPES (Serva). 200 μl of a cell suspension comprising 2.10^5 lymphocytes were placed on a microplate (manufacturer: Sterilin Great Britain); five parallels were carried out each.
# 2 and 10 μg/ml, respectively of Phytohaemagglutinine (Leucoagglutinine; manufacturer Pharmacie Sweden) and 25 μg/ml of Concanavalin A (Carbiochem) were added to the cultures; the above values relate to final concentration. The cultures were cultivated at 37° C. for 72 hours. Eight hours before the termination of the end of the cultivating period 0.5 μCi ^3 H thymidine (Chemapol. Czechoslovakia) was added to the samples. Incubation was stopped by freezing the cultures. After melting the samples were filtered on an automatic harvester (Dynatech). The radioactivity of the samples was measured in a scintillation counter. The activity was expressed as c.p.m. (Tables IV and V).
# [5] = system: neutrophilic granulocytes, lymphocytes and macrophages; experiment: Preliminary rapid test: immunostimulant effect; format: in vivo, CFLP male mice; conditions: oral, one-tenth of LD50; 24 hours
# tumor cells = experiment: Testing of antitumor effect (overall)
# [6] = system: neutrophylic granulocytes and limphocytes; conditions: mouse, in vivo, po
# NK-yl ascites tumor = experiment: Combinations with known cytostatic agents in NK-ly ascites tumor; format: in vivo, CFLP mice; conditions: with cyclophosphamide, carnomustine, degranol, dibromo dulcitol or dibromo mannitol
# [7] = Decreased ADCC, 6,7 × 10^-8 mole
# [8] = Decreased ADCC, 6,7 × 10^-9 mole
# [9] = Decreased ADCC, 6,7 × 10^-10 mole
smiles,measurement,setting,value
"C=CCSC(=N)NC(=N)N [Compound A, N-/aminoiminomethyl/-S-allyl-isothiuronium salts (halogenides)]",Change of ADCC cytotoxicity index vs control,human lymphocytes [1]; [7],+264%
same,"Cytotoxicity index, ADCC",human lymphocytes [1]; [7],10.2 ± 2.7%
same,Change of ADCC cytotoxicity index vs control,human lymphocytes [1]; [8],+175%
same,"Cytotoxicity index, ADCC",human lymphocytes [1]; [8],7.7 ± 1.9%
same,Change of ADCC cytotoxicity index vs control,human lymphocytes [1]; [9],+126%
same,"Cytotoxicity index, ADCC",human lymphocytes [1]; [9],6.35 ± 1.7%
same,Change of ADCC cytotoxicity index vs control,"human lymphocytes [1]; Normal ADCC, 6,7 × 10^-8 mole",+62%
same,"Cytotoxicity index, ADCC","human lymphocytes [1]; Normal ADCC, 6,7 × 10^-8 mole",68.2 ± 5.3%
same,Change of ADCC cytotoxicity index vs control,"human lymphocytes [1]; Normal ADCC, 6,7 × 10^-9 mole",+52%
same,"Cytotoxicity index, ADCC","human lymphocytes [1]; Normal ADCC, 6,7 × 10^-9 mole",64 ± 5.8%
same,Change of ADCC cytotoxicity index vs control,"human lymphocytes [1]; Normal ADCC, 6,7 × 10^-10 mole",+39%
same,"Cytotoxicity index, ADCC","human lymphocytes [1]; Normal ADCC, 6,7 × 10^-10 mole",58.5 ± 5.2%
same,Change of NK cytotoxicity index vs control,"human lymphocytes [2]; Decreased NK, 6.7 × 10^-9 mole/ml",+68%
same,"Cytotoxicity index, NK activity","human lymphocytes [2]; Decreased NK, 6.7 × 10^-9 mole/ml, n=7",25.3 ± 3.2%
same,Change of NK cytotoxicity index vs control,"human lymphocytes [2]; Decreased NK, 6.7 × 10^-10 mole/ml",+43%
same,"Cytotoxicity index, NK activity","human lymphocytes [2]; Decreased NK, 6.7 × 10^-10 mole/ml, n=7",21.6 ± 3.0%
same,Change of NK cytotoxicity index vs control,"human lymphocytes [2]; Decreased NK, third dose column (printed 6.7 × 10^-31 8)",+113%
same,"Cytotoxicity index, NK activity","human lymphocytes [2]; Decreased NK, third dose column (printed 6.7 × 10^-31 8) mole/ml, n=7",32.2 ± 3.2%
same,Change of NK cytotoxicity index vs control,"human lymphocytes [2]; Normal NK, 6.7 × 10^-9 mole/ml",+32%
same,"Cytotoxicity index, NK activity","human lymphocytes [2]; Normal NK, 6.7 × 10^-9 mole/ml, n=8",43.4 ± 2.7%
same,Change of NK cytotoxicity index vs control,"human lymphocytes [2]; Normal NK, 6.7 × 10^-10 mole/ml",+25%
same,"Cytotoxicity index, NK activity","human lymphocytes [2]; Normal NK, 6.7 × 10^-10 mole/ml, n=8",41 ± 2.9%
same,Change of NK cytotoxicity index vs control,"human lymphocytes [2]; Normal NK, third dose column (printed 6.7 × 10^-31 8)",+45%
same,"Cytotoxicity index, NK activity","human lymphocytes [2]; Normal NK, third dose column (printed 6.7 × 10^-31 8) mole/ml, n=8",47.6 ± 1.4%
same,Migration area,"[3]; 0.1 μg/ml, non significant",10.51 mm^2
same,Migration area,"[3]; 1.0 μg/ml, p < 0.01",12.25 ± 1.58 mm^2
same,Migration area,"[3]; 10.0 μg/ml, p < 0.01",11.24 ± 1.69 mm^2
same,"Blastos transformation, average c.p.m.","human lymphocytes [4]; healthy controls n=6, Con A 25 μg/ml, dose 0.1 μg/ml",10564 c.p.m.
same,"Blastos transformation, average c.p.m.","human lymphocytes [4]; healthy controls n=6, Con A 25 μg/ml, dose 1.0 μg/ml",14089 c.p.m.
same,"Blastos transformation, average c.p.m.","human lymphocytes [4]; healthy controls n=6, Con A 25 μg/ml, dose 10.0 μg/ml",17038 c.p.m.
same,"Blastos transformation, average c.p.m.","human lymphocytes [4]; healthy controls n=6, PHA 2 μg/ml, dose 0.1 μg/ml",22233 c.p.m.
same,"Blastos transformation, average c.p.m.","human lymphocytes [4]; healthy controls n=6, PHA 2 μg/ml, dose 1.0 μg/ml",23156 c.p.m.
same,"Blastos transformation, average c.p.m.","human lymphocytes [4]; healthy controls n=6, PHA 2 μg/ml, dose 10.0 μg/ml",25404 c.p.m.
same,"Blastos transformation, average c.p.m.","human lymphocytes [4]; healthy controls n=6, PHA 10 μg/ml, dose 0.1 μg/ml",29969 c.p.m.
same,"Blastos transformation, average c.p.m.","human lymphocytes [4]; healthy controls n=6, PHA 10 μg/ml, dose 1.0 μg/ml",33826 c.p.m.
same,"Blastos transformation, average c.p.m.","human lymphocytes [4]; healthy controls n=6, PHA 10 μg/ml, dose 10.0 μg/ml",33790 c.p.m.
same,"Blastos transformation, average c.p.m.","human lymphocytes [4]; patients of decreased reactivity /tumor and SLE/ n=6, Con A 25 μg/ml, dose 0.1 μg/ml",1097 c.p.m.
same,"Blastos transformation, average c.p.m.","human lymphocytes [4]; patients of decreased reactivity /tumor and SLE/ n=6, Con A 25 μg/ml, dose 1.0 μg/ml",935 c.p.m.
same,"Blastos transformation, average c.p.m.","human lymphocytes [4]; patients of decreased reactivity /tumor and SLE/ n=6, Con A 25 μg/ml, dose 10.0 μg/ml",1023 ± 361 c.p.m.
same,"Blastos transformation, average c.p.m.","human lymphocytes [4]; patients of decreased reactivity /tumor and SLE/ n=6, PHA 2 μg/ml, dose 0.1 μg/ml",2877 c.p.m.
same,"Blastos transformation, average c.p.m.","human lymphocytes [4]; patients of decreased reactivity /tumor and SLE/ n=6, PHA 2 μg/ml, dose 1.0 μg/ml",4344 c.p.m.
same,"Blastos transformation, average c.p.m.","human lymphocytes [4]; patients of decreased reactivity /tumor and SLE/ n=6, PHA 2 μg/ml, dose 10.0 μg/ml",4716 ± 1287 c.p.m.
same,"Blastos transformation, average c.p.m.","human lymphocytes [4]; patients of decreased reactivity /tumor and SLE/ n=6, PHA 10 μg/ml, dose 0.1 μg/ml",5802 c.p.m.
same,"Blastos transformation, average c.p.m.","human lymphocytes [4]; patients of decreased reactivity /tumor and SLE/ n=6, PHA 10 μg/ml, dose 1.0 μg/ml",6323 c.p.m.
same,"Blastos transformation, average c.p.m.","human lymphocytes [4]; patients of decreased reactivity /tumor and SLE/ n=6, PHA 10 μg/ml, dose 10.0 μg/ml",6968 ± 1669 c.p.m.
"C=CCSC(=NCC)NC(=N)N [Example 34, N-aminoiminomethyl-N'-ethyl-S-allyl-isothiuronium chloride]",Immunostimulant effect,[5],medium (Medium effect is observed if the increase of cell number or activity over the control amounts to 20%)
same,Antitumor effect,tumor cells,outstanding antitumor effect
same,Toxic effect,[6],0
same,LD50 at 24 h,in vivo; ip,84 ± 7.6 mg/kg
same,LD50 at 24 h,in vivo; po,780 ± 62 mg/kg
"C=C(C)CSC(=NC(C)C)NC(=N)N [Example 36, N-aminoiminomethyl-N'-isopropyl-S-methallyl-isothiuronium chloride]",Antitumor effect,tumor cells,outstanding antitumor effect
"CC(C)N=C(NC(=N)N)SCCCCl [Example 35, N-aminoiminomethyl-N'-isopropyl-S-(3-chloropropyl)-isothiuronium bromide]",Antitumor effect,tumor cells,outstanding antitumor effect
"N=C(N)NC(=N)SCCCCl [Example 15, N-Aminoiminomethyl-S-(3-Chloropropyl)-Isothiuronium Bromide]",Immunostimulant effect,[5],weak
same,Antitumor effect of combination vs cytostatic agent alone,NK-yl ascites tumor,the antitumor effect was strengthened
same,Immunodepression of combination vs cytostatic agent alone,NK-yl ascites tumor,immunodepression decreased
same,Antitumor effect,tumor cells,outstanding antitumor effect
same,Toxic effect,[6],0
same,LD50 at 24 h,in vivo; po,1210 ± 180 mg/kg
"N=C(N)NC(=N)SCCCBr [Example 28, N-aminoiminomethyl-S-(3-bromo-propyl)-isothiuronium bromide]",Immunostimulant effect,[5],weak
same,Antitumor effect of combination vs cytostatic agent alone,NK-yl ascites tumor,the antitumor effect was strengthened
same,Immunodepression of combination vs cytostatic agent alone,NK-yl ascites tumor,immunodepression decreased
same,Antitumor effect,tumor cells,outstanding antitumor effect
same,Toxic effect,[6],0
same,LD50 at 24 h,in vivo; po,980 ± 640 mg/kg
"C=C(C)CSC(=NC1CCCCC1)NC(=N)N [Example 38, N-aminoiminomethyl-N'-cyclohexyl-S-methallyl-isothiuronium chloride]",Antitumor effect,tumor cells,outstanding antitumor effect
